Results reported in patent US11046714B2, “2,2-difluorodioxolo A2A receptor antagonists” (Merck Sharp & Dohme Corp., priority 2013, dated 2021).

These compounds were tested against human A2A receptor (Homo sapiens (Human), UniProt P29274) (assay: competition binding assay using Scintillation Proximity technology). Details: membranes from CHO-K1 cells expressing the human A2a receptor; 2.0 nM tritiated compound; Cheng-Prusoff.
Outline: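 Membranes (1.0 μg) from CHO-K1 cells expressing human A2A were treated with adenosine deaminase, then incubated 1 h at room temperature with compound (3000–0.15 nM) and 2.0 nM tritiated SCH-type ligand on WGA SPA beads in PBS plus 10 mM MgCl2. Nonspecific binding was defined with 1 μM CGS 15943. Ki was derived from EC50 via Cheng-Prusoff.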

Chain of human A2A receptor (P29274 whole entry): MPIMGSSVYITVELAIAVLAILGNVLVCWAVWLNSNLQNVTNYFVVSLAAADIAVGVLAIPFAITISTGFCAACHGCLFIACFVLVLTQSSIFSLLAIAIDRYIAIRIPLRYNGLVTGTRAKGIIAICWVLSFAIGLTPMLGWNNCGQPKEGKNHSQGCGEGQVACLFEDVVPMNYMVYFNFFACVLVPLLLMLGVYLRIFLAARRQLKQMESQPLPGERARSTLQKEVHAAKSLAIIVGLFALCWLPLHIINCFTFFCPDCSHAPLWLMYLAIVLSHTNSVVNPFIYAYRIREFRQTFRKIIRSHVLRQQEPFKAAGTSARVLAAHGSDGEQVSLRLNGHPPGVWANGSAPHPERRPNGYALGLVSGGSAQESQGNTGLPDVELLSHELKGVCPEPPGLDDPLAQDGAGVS

SMILES | Ki
C[C@H]1COCCN1CCc1nc2c3ccc4c(c3nc(N)n2n1)OC(F)(F)O4 [Example 43, 2,2-difluoro-8-{2-[(3S)-3-methylmorpholin-4-yl]ethyl}[1,3]dioxolo[4,5-h][1,2,4]triazolo[1,5-c]quinazolin-5-amine] | 7.8 nM
Nc1nc2c3c(ccc2c2nc(CC(CCl)CCl)nn12)OC(F)(F)O3 [Example 150, 8-[3-chloro-2-(chloromethyl)propyl]-2,2-difluoro[1,3]dioxolo[4,5-h][1,2,4]triiazolo[1,5-c]quinazolin-5-amine] | 2.3 nM
C[C@H](Cc1nc2c3ccc4c(c3nc(N)n2n1)OC(F)(F)O4)N1CCCC(C)(F)C1 (single isomer, unassigned) [Example 85, 2,2-difluoro-8-{(2R)-2-[(3R or 3S)-3-fluoro-3-methylpiperidin-1-yl]propyl}[1,3]dioxolo[4,5-h][1,2,4]triazolo[1,5-c]quinazolin-5-amine] | 12 nM
Nc1nc2c3c(ccc2c2nc(CN4CCN(c5ccc(F)cn5)CC45CC5)nn12)OC(F)(F)O3 [Example 103, 2,2-difluoro-8-{[7-(5-fluoropyridin-2-yl)-4,7-diazaspiro[2.5]oct-4-yl]methyl}[1,3]dioxolo[4,5-h][1,2,4] triazolo[1,5-c]quinazolin-5-amine] | 3.4 nM
Nc1nc2c3c(ccc2c2nc(CCN4CC[C@H](c5ccccc5)C4)nn12)OC(F)(F)O3 [Example 37, 2,2-difluoro-8-{2-[(3R)-3-phenylpyrrolidin-1-yl]ethyl}[1,3]dioxolo[4,5-h][1,2,4]triazolo[1,5-c]quinazolin-5-amine] | 20 nM
Nc1nc2c3c(ccc2c2nc(CN4Cc5ccc(F)cc5C4)nn12)OC(F)(F)O3 [Example 120, 2,2-difluoro-8-[(5-fluoro-1,3-dihydro-2H-isoindol-2-yl)methyl][1,3] dioxolo[4,5-h][1,2,4]triazolo[1,5-c]quinazolin-5-amine] | 2.7 nM
CC(c1nc2c3ccc4c(c3nc(N)n2n1)OC(F)(F)O4)N1CCCC(F)(F)C1 (single isomer, unassigned) [Example 135, 8-[(1S or 1R)-1-(3,3-difluoropiperidin-1-yl)ethyl]-2,2-difluoro[1,3]dioxolo [4,5-h][1,2,4]triazolo[1,5-c] quinazolin-5-amine] | 89 nM
Nc1nc2c3c(ccc2c2nc(Cc4cccnc4Cl)nn12)OC(F)(F)O3 [Example 3, 8-((2-chloropyridin-3-yl)methyl)-2,2-difluoro-[1,3]dioxolo[4,5-h][1,2,4]triazolo[1,5-c]quinazolin-5-amine] | 2.9 nM
Nc1nc2c3c(ccc2c2nc(CN4CCC(Oc5ccc(F)cc5)CC4)nn12)OC(F)(F)O3 [Example 117, 2,2-difluoro-8-{[4-(4-fluorophenoxy)piperidin-1-yl]methyl}[1,3]dioxolo [4,5-h][1,2,4]triazolo[1,5-c]quinazolin-5-amine] | 4.9 nM
Nc1nc2c3c(ccc2c2nc(CC(C(F)F)N4Cc5cccnc5C4)nn12)OC(F)(F)O3 (single isomer, unassigned) [Example 97, (R or S)-8-(3,3-difluoro-2-(5H-pyrrolo[3,4-b]pyridin-6(7H)-yl)propyl)-2,2-difluoro-[1,3]dioxolo[4,5-h][1,2,4]triazolo[1,5-c]quinazolin-5-amine] | 2.2 nM
CC1(F)CCN(CCc2nc3c4ccc5c(c4nc(N)n3n2)OC(F)(F)O5)CC1 [Example 28, 2,2-difluoro-8-[2-(4-fluoro-4-methylpiperidin-1-yl)ethyl] [1,3]dioxolo[4,5-h][1,2,4] triazolo[1,5-c]quinazolin-5-amine] | 11 nM
C[C@@H]1CN(c2ccc(F)cc2)CCN1Cc1nc2c3ccc4c(c3nc(N)n2n1)OC(F)(F)O4 [Example 106, 2,2-difluoro-8-{[(2R)-4-(4-fluorophenyl)-2-methylpiperazin-1-yl]methyl}[1,3]dioxolo[4,5-h][1,2,4] triazolo[1,5-c]quinazolin-5-amine] | 2.1 nM

Continued by falling Ki, values first:

Ki | SMILES
8.7 nM | Nc1nc2c3c(ccc2c2nc(CN4CCN(c5cccc(F)c5)CC45CC5)nn12)OC(F)(F)O3 [Example 104, 2,2-difluoro-8-{[7-(3-fluorophenyl)-4,7-diazaspiro[2.5]oct-4-yl]methyl} [1,3]dioxolo[4,5-h][1,2,4]triazolo [1,5-c]quinazolin-5-amine]
4.8 nM | C[C@@H](Cc1nc2c3ccc4c(c3nc(N)n2n1)OC(F)(F)O4)N1CC(C)(F)C1 [Example 88, 2,2-difluoro-8-[(2S)-2-(3-fluoro-3-methylazetidin-1-yl)propyl][1,3] dioxolo[4,5-h][1,2,4]triazolo [1,5-c]quinazolin-5-amine]
3.1 nM | Nc1nc2c3c(ccc2c2nc(CCN4Cc5ccc(C(F)(F)F)cc5C4)nn12)OC(F)(F)O3 [Example 7, 2,2-difluoro-8-{2-[5-(trifluoromethyl)-1,3-dihydro-2H-isoindol-2-yl]ethyl}[1,3]-dioxolo[4,5-h][1,2,4]triazolo [1,5-c]quinazolin-5-amine]
2.9 nM | CC1(C)CN(Cc2nc3c4ccc5c(c4nc(N)n3n2)OC(F)(F)O5)C1 [Example 110, 8-[(3,3-dimethylazetidin-1-yl)methyl]-2,2-difluoro[1,3]dioxolo[4,5-h][1,2,4]triazolo[1,5-c]quinazolin-5-amine]
2.7 nM | Nc1nc2c3c(ccc2c2nc(CC(CO)CO)nn12)OC(F)(F)O3 [Example 149, 2-[(5-amino-2,2-difluoro[1,3]dioxolo[4,5-h][1,2,4]triazolo[1,5-c]quinazolin-8-yl)methyl]propane-1,3-diol]
2 nM | CCC1(F)CN(Cc2nc3c4ccc5c(c4nc(N)n3n2)OC(F)(F)O5)C1 [Example 112, 8-[(3-ethyl-3-fluoroazetidin-1-yl)methyl]-2,2-difluoro[1,3] dioxolo[4,5-h][1,2,4]triazolo[1,5-c]quinazolin-5-amine]
1.6 nM | Nc1nc2c3c(ccc2c2nc(CCN4CCN(C5CCCC5)C(=O)C4)nn12)OC(F)(F)O3 [Example 49, 4-[2-(5-amino-2,2-difluoro[1,3]dioxolo[4,5-h][1,2,4]triazolo [1,5-c]quinazolin-8-yl)ethyl]-1-cyclopentylpiperazin-2-one]
1.5 nM | Cc1nc2c(o1)CN(CCc1nc3c4ccc5c(c4nc(N)n3n1)OC(F)(F)O5)CC2 [Example 12, 2,2-difluoro-8-[2-(2-methyl-6,7-dihydro[1,3]oxazolo[5,4-c]pyridin-5(4H)-yl)ethyl][1,3] dioxolo[4,5-h][1,2,4]triazolo [1,5-c]quinazolin-5-amine]
1.5 nM | Cc1ncc(N2CCN(CCc3nc4c5ccc6c(c5nc(N)n4n3)OC(F)(F)O6)[C@H](C)C2)s1 [Example 45, 2,2-difluoro-8-{2-[(2R)-2-methyl-4-(2-methyl-1,3-thiazol-5-yl)piperazin-1-yl]ethyl} [1,3]dioxolo[4,5-h][1,2,4] triazolo[1,5-c]quinazolin-5-amine]
1.4 nM | CC1(F)CN(Cc2nc3c4ccc5c(c4nc(N)n3n2)OC(F)(F)O5)C1 [Example 111, 2,2-difluoro-8-[(3-fluoro-3-methylazetidin-1-yl)methyl][1,3] dioxolo[4,5-h][1,2,4]triazolo[1,5-c]quinazolin-5-amine]
1.2 nM | Nc1nc2c3c(ccc2c2nc(C4CCCN(c5cccc(F)c5)C4)nn12)OC(F)(F)O3 (single isomer, unassigned) [Example 142, (R or S)-2,2-difluoro-8-[1-(3-fluorophenyl)piperidin-3-yl][1,3]dioxolo[4,5-h][1,2,4]triazolo[1,5-c]quinazolin-5-amine]
